Measured values taken from patent US8895698B2, “Binding partners of antibodies specific for dendritic cell antigens” (The Corporation of the Trustees of the Order of the Sisters …, priority 2004, dated 2014).

Legend:
CMRF44Ab [1] = assay: ELISA binding of peptide phage clones to CMRF44Ab; conditions: 12-mer phage libraries, confirmed by FACS blocking of CMRF44Ab binding to cell surface
Protocol: (§1) Peptide mimics were isolated from a phage display library using a library purchased from New England Biolabs called the PhD-12 Phage Display Peptide Library Kit (Cat No. #E8110S). The PhD-12 Phage Display Peptide Library Kit is based on a combinatorial library of random peptide 12-mers fused to a minor coat protein (pIII) of M13 phage. […] The library consists of ˜2.7×10^9 electroporated sequences, amplified once to yield ˜55 copies of each sequence in 10 μl of the supplied phage. The library is usually panned 3-4 times on the subject of study (usually antibody, but can use receptors, ligands etc.) with increasing stringency of washing at each step followed by analysis of individual clones for a consensus sequence binding to the test subject.
(§2) The consensus sequence of any peptides isolated from the library were be determined according to methods known to a person skilled in the art. ELISAs were then used to determine the binding of individual peptide phage clones or synthetic peptides (with or without repeats of the consensus sequence) to the original target (FIG. 1). Competitive binding assays were also used and analysed by FACS to determine true binding of the peptide sequences to the binding site of the target compared with the “natural” ligand or epitope (FIG. 2). Sequence analysis of the consensus sequence can determine what type of ligand is binding to the target or could give a true epitope, which may be used for database searches to find possible full-length sequences.
A consensus peptide sequence was identified for peptides which bind to CMRF44Ab from the 12-mer libraries using ELISA. Subsequent FACS analysis of phage peptide blocking of binding of CMRF44Ab to the cell surface also confirmed the peptide sequence. The peptide sequence appeared to be constrained to the N-terminus and the best sequence was AQKYQ (SEQ ID NO: 2) with apparent strong conservation at 1st, 3rd and 5th residues. A family of sequences were also identified and included ALKYQ (SEQ ID NO: 4), ALKEQ (SEQ ID NO: 5) and APKQQ (SEQ ID NO: 3). Further repeat panning of PhD-7 library was carried out to confirm the peptide sequence and identify other possible CMRF44 peptide antigen mimic sequences. […] Also, 3 rounds of repeat panning was carried out on combined 7-mer and 12-mer libraries (pooled together) with acid elution. Several clones sequences as well as pool of 3 round eluate. Results for CMRF-44 show an enrichment of the clone: ALKYQTGMPQSM (SEQ ID NO: 6) in both individual clones and the main strongest sequence in the pooled 3rd round eluate (FIG. 4).

CMRF44Ab [2] = assay: Repeat panning of combined 7-mer and 12-mer phage peptide libraries on CMRF44Ab, sequencing of 3rd round clones and pooled eluate; type: binding; conditions: 3 rounds, combined 7-mer and 12-mer libraries, acid elution; individual clones and pooled 3rd round eluate (FIG. 4)
From the text: FIG. 4 is a graphical representation of sequence results of 3rd round combined 7 and 12-mer phage peptide library panning (CMRF44Ab).
as §1
A consensus peptide sequence was identified for peptides which bind to CMRF44Ab from the 12-mer libraries using ELISA. Subsequent FACS analysis of phage peptide blocking of binding of CMRF44Ab to the cell surface also confirmed the peptide sequence. The peptide sequence appeared to be constrained to the N-terminus and the best sequence was AQKYQ (SEQ ID NO: 2) with apparent strong conservation at 1st, 3rd and 5th residues. […]

CMRF44Ab [3] = assay: FACS competitive binding: peptide blocking of CMRF44Ab binding to natural antigen on KM-H2 cells; type: cell-based; conditions: 5-mer peptide alone, KM-H2 cells (FIG. 22)
From the text: (§3) FIG. 22 is a graphical representation of FACS data showing binding of CMRF44Ab and scFv binding to KM-H2 cells and blocking of binding to natural antigen by competition with peptide mimic.
as §2

CMRF44 scFv = assay: FACS competitive binding: peptide blocking of CMRF44 scFv binding to natural antigen on KM-H2 cells; type: cell-based; conditions: 5-mer peptide alone, KM-H2 cells (FIG. 22)
From the text: as §3, §2

ALKEQ
consensus peptide sequence binding to CMRF44Ab (CMRF44Ab [1]): identified

ALKYQ
consensus peptide sequence binding to CMRF44Ab (CMRF44Ab [1]): identified

ALKYQTGMPQSM [12-mer phage display peptide clone]
enrichment of clone in panning (CMRF44Ab [2]): enrichment

APKQQ
consensus peptide sequence binding to CMRF44Ab (CMRF44Ab [1]): identified

AQKYQ
blocking of CMRF44Ab (CMRF44Ab [3]): blocking
blocking of the engineered CMRF44 scFv (CMRF44 scFv): blocking
consensus peptide sequence binding to CMRF44Ab (CMRF44Ab [1]): best sequence
